Source: publication PMC6972920, “Structure-based development of caged dopamine D2/D3 receptor antagonists” (Scientific Reports, 2020)
“Also recorded” adds a separate entry of the source.

Assays:
[1] = Compound stability and photolysis in aqueous buffer monitored by HPLC; assay type: physicochemical; conditions: for behaviour upon illumination with λp = 365 nm (in words): aqueous buffer, LED 365 nm, HPLC; for stability in the absence of light (in words): dark, storage and solution, HPLC/LCMS; for remaining fraction of the initial concentration: incubation in aqueous buffer at ambient light for 1 h
Protocol: All measurements were performed in aqueous buffer solution. Compound stability and photolysis was monitored by HPLC. […] Excitation of NB- and DMNB-type cages to trigger photolysis is usually performed with light of 300–400 nm. This absorption profile may limit the wavelength range for cage photolysis, as simultaneous excitation of the core pharmacophore may trigger photolytic degradation of the desired product. We performed photolysis experiments using a near UV light-emitting diode (LED) light source with a peak wavelength of λp = 365 nm and a spectrum half width of Δλ = 9 nm.
No unspecific degradation of the pharmacophore was observed, resulting in constant concentration of the desired product. […] The exposure to ambient light for longer time led to partial photolytic degradation. After incubation in aqueous buffer at ambient light for 1 h, we detected remaining 51% and 62% of the initial concentrations of 4 (MG307) and 5, respectively.
For compound characterization, UV/Vis absorption spectra of samples with c = 0.1 mM in methanol were measured on an Analytik Jena Specord 200 Plus spectrometer (λ = 210–400 nm). Irradiation experiments to trigger photolysis were performed in open HPLC glass vials using a LED (λ = 365 nm, 4.5 V, 0.7 A) to irradiate the samples from top. An aqueous buffer solution served as solvent (50 mM Tris, 1 mM EDTA, 50 mM MgCl2, 100 µg/ml bacitracin, 5 µg/ml soybean trypsin inhibitor), with initial sample concentrations of […] and sample volumes of 100 µl. Photolysis was monitored by HPLC as specified before (eluent system 1). […] Unless specified differently, all experiments were performed in triplicate.

[2] = target: human dopamine receptor subtype D2S (Homo sapiens, UniProt P14416); assay: Radioligand displacement, [3H]spiperone, CHO cell membranes; assay type: binding; conditions: [3H]spiperone; mean ± SEM of 4-9 experiments; compounds 1, 2, 3: ± SD of two experiments; read-out: Ki value D2S
[3] = target: T1, dopamine D2S receptor co-expressed with hybrid Gαqi in HEK293T cells (Homo sapiens, UniProt P14416); assay: IP accumulation assay (IP-One HTRF), agonist / inverse agonist effect; assay type: cell-based; conditions: for functional properties in IP accumulation assay (in words): D2S receptors; for Emax: HEK-293T, relative to full effect of quinpirole (100%) and buffer (0%); for EC50: IP accumulation, ± SEM, 3-8 experiments, negative Emax = inverse agonist effect
T1 construct: expressed in transfected cells; host or cells: HEK-293T cells, transient co-transfection

[4] = target: human dopamine receptor subtype D3 (Homo sapiens, UniProt P35462); assay: Radioligand displacement, [3H]spiperone, CHO cell membranes; assay type: binding; conditions: mean ± SEM of 4-9 experiments, compounds 1, 2, 3: ± SD of two experiments
[5] = target: T1, dopamine D2S receptor co-expressed with hybrid Gαqi in HEK293T cells; assay: IP accumulation assay (IP-One HTRF), inhibition of 10 nM quinpirole; assay type: cell-based; conditions: for Emax: HEK-293T, in presence of 10 nM quinpirole, relative to quinpirole (100%) and buffer (0%), read-out: inhibitory effect Emax; for IC50: blocking of the agonist effect of 10 nM quinpirole, ± SEM, 4-6 experiments, read-out: inhibitory effect IC50
[6] = target: T2, D2S receptor (HEK293T cells co-transfected with D2S and Gαqi) (Homo sapiens, UniProt P14416); assay: Illumination experiment: test compound solution irradiated at 365 nm before addition to cells, quinpirole stimulated IP accumulation; assay type: cell-based; conditions: for irradiation time after which no quinpirole activity could be observed / agonist effect of quinpirole remaining after 2 seconds of irradiation: 50 nM caged compound, 365 nm; for irradiation time for complete release (uncaging) of dechloroeticlopride: 50 nM, irradiation at 365 nm, solution irradiated before addition to cells
T2 construct: expressed in transfected cells; host or cells: HEK-293T cells, transient co-transfection
Excerpt: (§1) […]. Mean curves ± SEM of 4–9 individual curves each done in triplicates. […]. Mean curves from 3–4 experiments each done in duplicate. […]. While 4 (MG307) (green bars) is completely released after 10 sec, the uncaging of 5 (red bars) needs 20 sec. […]. Mean bars ± SEM derived from 3–11 individual experiments each done in quintuplicates. Irradiation with a solution of test compound before addition to the cellular test system. […]. Means ± SEM from 6 experiments in quintuplicates.
(§2) […]. Actually, we observed an onset of a strong inverse agonist effect on quinpirole-induced IP accumulation after irradiation of the nitrobenzyl-caged compound 4 (MG307). […] […]. […] To complement uncaging of the test compounds by irradiation of the test compounds before addition to receptor by a biologically more significant experiment, we investigated whether uncaging can also be accomplished directly in the cellular system. […] In fact, quinpirole-promoted IP accumulation was substantially attenuated after irradiation for 10 or 20 sec. […] […]. […] […].
HEK293T cells were transiently co-transfected with D2S and Gαqi. Solutions of the test compounds were irradiated at λ = 365 nm using the same LED as for the photochemistry experiments (see above) for 2, 5, 10 or 20 sec and the test compound was added to the cell system immediately after illumination. […]. Accumulation of IP was determined as described above. […]. Basal activity (buffer) was set as 0%. As a control, quinpirole was irradiated for 20 sec without observing any difference to the effect of the untreated analog. […]. All irradiation experiments were carried out in the dark or under dim light.

[7] = target: T3, human dopamine receptor subtype D4.4 (Homo sapiens, UniProt P21917); assay: Radioligand displacement, [3H]spiperone, CHO cell membranes; assay type: binding; conditions: [3H]spiperone; mean ± SEM of 4-9 experiments; compounds 1, 2, 3: ± SD of two experiments; read-out: Ki value D4.4
T3 sequence (P21917 1-419): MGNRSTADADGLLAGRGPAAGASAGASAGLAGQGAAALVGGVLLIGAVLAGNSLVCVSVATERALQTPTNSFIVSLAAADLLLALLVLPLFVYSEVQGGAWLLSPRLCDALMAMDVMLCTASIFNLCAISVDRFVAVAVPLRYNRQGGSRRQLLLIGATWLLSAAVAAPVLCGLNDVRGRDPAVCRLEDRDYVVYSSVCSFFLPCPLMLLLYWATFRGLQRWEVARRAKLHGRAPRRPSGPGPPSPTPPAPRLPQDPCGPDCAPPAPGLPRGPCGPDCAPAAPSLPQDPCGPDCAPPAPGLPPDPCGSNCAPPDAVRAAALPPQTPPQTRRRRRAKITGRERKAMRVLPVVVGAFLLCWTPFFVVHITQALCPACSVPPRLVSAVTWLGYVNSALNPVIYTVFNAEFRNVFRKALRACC

[8] = target: human dopamine receptor subtype D2L (Homo sapiens, UniProt P14416); assay: as above; assay type: binding; conditions: [3H]spiperone; mean ± SEM of 4-9 experiments; compounds 1, 2, 3: ± SD of two experiments; read-out: Ki value D2L
[9] = target: T2, D2S receptor (HEK293T cells co-transfected with D2S and Gαqi); assay: Photoactivation by direct irradiation of the cellular test system, quinpirole mediated IP accumulation; assay type: cell-based; conditions: buffer and compound irradiated at 365 nm for 10 or 20 sec
Excerpt: as §1, §2
HEK293T cells were transiently co-transfected with D2S and Gαqi. Solutions of the test compounds were irradiated at λ = 365 nm using the same LED as for the photochemistry experiments (see above) for 2, 5, 10 or 20 sec and the test compound was added to the cell system immediately after illumination. […]. Accumulation of IP was determined as described above. […]. […]

Sequence of human dopamine receptor subtype D2S (P14416 1-414 isoform P14416-2): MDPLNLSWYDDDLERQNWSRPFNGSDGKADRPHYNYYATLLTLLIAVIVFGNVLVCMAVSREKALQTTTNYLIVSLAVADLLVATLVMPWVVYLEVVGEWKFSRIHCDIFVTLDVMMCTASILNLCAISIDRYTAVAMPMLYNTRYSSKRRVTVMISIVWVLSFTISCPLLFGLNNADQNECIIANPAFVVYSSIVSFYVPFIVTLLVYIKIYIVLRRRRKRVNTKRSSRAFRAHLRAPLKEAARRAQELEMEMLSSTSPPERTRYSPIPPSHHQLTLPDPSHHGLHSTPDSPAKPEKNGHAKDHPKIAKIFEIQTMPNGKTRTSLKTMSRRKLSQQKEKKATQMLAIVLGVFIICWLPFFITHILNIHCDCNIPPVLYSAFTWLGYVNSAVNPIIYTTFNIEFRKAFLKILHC
T1 sequence (P14416 1-414 isoform P14416-2): as above
T2 sequence (P14416 1-414 isoform P14416-2): as above
Sequence of human dopamine receptor subtype D2L (P14416 whole entry): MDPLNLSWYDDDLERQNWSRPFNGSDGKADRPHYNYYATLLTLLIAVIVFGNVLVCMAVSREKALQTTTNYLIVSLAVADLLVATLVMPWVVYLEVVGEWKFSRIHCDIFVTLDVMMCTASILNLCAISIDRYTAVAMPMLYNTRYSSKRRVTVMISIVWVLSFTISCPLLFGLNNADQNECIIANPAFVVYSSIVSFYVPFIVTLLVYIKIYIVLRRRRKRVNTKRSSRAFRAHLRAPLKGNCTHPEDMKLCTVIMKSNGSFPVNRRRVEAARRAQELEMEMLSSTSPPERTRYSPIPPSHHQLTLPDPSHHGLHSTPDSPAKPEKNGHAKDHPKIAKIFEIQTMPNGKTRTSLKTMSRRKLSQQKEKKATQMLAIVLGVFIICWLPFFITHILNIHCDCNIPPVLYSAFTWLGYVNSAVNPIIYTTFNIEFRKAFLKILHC
Sequence of human dopamine receptor subtype D3 (P35462 whole entry): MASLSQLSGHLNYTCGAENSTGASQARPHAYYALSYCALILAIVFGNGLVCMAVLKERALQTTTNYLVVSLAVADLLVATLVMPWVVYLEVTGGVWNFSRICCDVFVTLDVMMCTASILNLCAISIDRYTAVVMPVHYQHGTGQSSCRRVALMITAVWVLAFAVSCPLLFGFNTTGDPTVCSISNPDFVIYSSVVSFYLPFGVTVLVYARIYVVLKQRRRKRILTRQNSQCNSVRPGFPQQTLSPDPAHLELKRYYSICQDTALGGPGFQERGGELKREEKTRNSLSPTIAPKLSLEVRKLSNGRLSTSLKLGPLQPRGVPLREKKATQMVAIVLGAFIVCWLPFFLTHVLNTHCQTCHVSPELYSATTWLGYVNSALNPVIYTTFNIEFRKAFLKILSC

behaviour upon illumination with λp = 365 nm (in words) ([1]; listed as 4 (MG307)) | remaining fraction of the initial concentration [1] [%] | Ki [2] [µM] | Emax [3] [%] | EC50 [3] [µM] | Ki [4] [µM] | Emax [5] [%] | IC50 [5] [µM] | irradiation time after which no quinpirole activity could be observed ([6]; 10 nM quinpirole) [s] | agonist effect of quinpirole remaining after 2 seconds of irradiation ([6]; 10 nM quinpirole) | irradiation time for complete release (uncaging) of dechloroeticlopride [6] [s] | Ki [7] [µM] | Ki [8] [µM] | remaining D2S promoted signalling (IP accumulation) after irradiation in the cellular system [9] | effect of irradiation at 365 nm for 20 sec on the compound's effect on IP accumulation (in words) ([6]; controls, 10 nM quinpirole) | SMILES | behaviour upon illumination with λp = 365 nm (in words) [1] | stability in the absence of light (in words) [1] | functional properties in IP accumulation assay (in words) [3]
clean photolysis | 51 | 0.22 ± 0.066 | -21 ± 3.3 | 0.22 ± 0.065 | 0.2 ± 0.062 | -29 ± 5.6 | 0.85 ± 0.21 | 10 | less than 30% | 10 | 2.8 ± 0.18 | 0.21 ± 0.018 | < 5% |  | CCc1ccc(OC)c(C(=O)NC[C@@H]2CCCN2CC)c1OCc1ccccc1[N+](=O)[O-] [compound 4, (S)-3-Ethyl-N-[(1-ethylpyrrolidin-2-yl)methyl]-6-methoxy-2-[(2-nitrobenzyl)oxy]benzamide] | fast conversion to dechloroeticlopride within a few seconds | stable under storage conditions and in solution for at least two days | inverse agonist properties were observed as well, but potency was low
 | 62 | 0.16 ± 0.035 | -21 ± 5.5 | 0.28 ± 0.12 | 0.14 ± 0.033 | -28 ± 4.6 | 0.99 ± 0.23 | 20 | less than 30% | 20 | 25 ± 3.3 | 0.35 ± 0.047 | about 35% |  | CCc1ccc(OC)c(C(=O)NC[C@@H]2CCCN2CC)c1OCc1cc(OC)c(OC)cc1[N+](=O)[O-] [compound 5] | fast conversion to dechloroeticlopride within a few seconds; also recorded: clean photolysis | stable under storage conditions and in solution for at least two days | inverse agonist properties were observed as well, but potency was low
 |  | 0.0012 ± 0.00021 | -17 ± 2.5 | 0.0052 ± 0.0008 |  | -20 ± 2.1 | 0.0096 |  |  |  |  | 0.0024 ± 0.00044 |  | does not affect | CCc1ccc(OC)c(C(=O)NC[C@@H]2CCCN2CC)c1O [dechloroeticlopride, (S)-3-Ethyl-N-[(1-ethylpyrrolidin-2-yl)methyl]-2-hydroxy-6-methoxybenzamide, reference compound] | more photostable; also recorded: no significant decomposition |  | specific antagonist / inverse agonist
